Experimental data published in paper PMC8376931, “Structure activity relationships and the binding mode of quinolinone-pyrimidine hybrids as reversal agents of multidrug resistance mediated by P-gp” (Scientific Reports, 2021).
Like-named read-outs stand apart in the source and are kept apart here.

What was measured:
[1] = target: T1, P-gp (Homo sapiens, UniProt P08183); details: 1 h
Description: (§1) The intracellular accumulation of the fluorescent probes, Dox and Rho123, was determined by monitoring its fluorescence intensity using flow cytometry (96-well plate format), as previously reported. The inhibition on the outward transport of these P-gp substrates results in an increased […] fluorescence intensity (MFI). […] Those compounds showing inhibition on P-gp at the maximum tested concentration were further evaluated at serial dilutions to determinate their MECs. […] The plates were then incubated in a 5% CO2 incubator for 1 h at 37 °C. Afterwards, 5 μM Dox was added to each well. The other fluorescent specific substrate of P-gp, Rho123, however, was added at 500 ng/mL to additionally measure the ability of the most promising compounds to block its efflux. Subsequently, cells from both assays were washed twice with cold PBS, and 15,000 events from each sample were analyzed to determine the cell-associated fluorescence. Dead cells were eliminated by means of forward- and side-scatter parameters. […] The blocking of the P-gp transport function was evaluated by the parameter FIR, calculated as the ratio of the MFI of Dox or Rho123 with the addition of the likely inhibitor to the MFI of Dox or Rho123 alone.

[2] = system: erythrocytes; assay: Erythrocyte hemolysis assay; assay type: cell-based; details: assayed at 2.5 to 20 µM
Description: (§2) PBMC were isolated from heparinized blood of healthy volunteers by density centrifugation using Ficoll-Hypaque separation. Ethical approval was provided by the Catholic University of Córdoba Research Ethics Board and informed consents were obtained from all donors. Briefly, 1 × 10^5 PBMC/well were incubated with the tested compounds at concentrations ranging from 2.5 to 20 µM in the presence of 10 μg/mL PHA, or with 1% DMSO as control. After 48 h incubation, MTT was added and the same protocol described above was followed to calculate the IC50 values. An erythrocyte hemolysis assay was carried out following previous procedures[8] with the compounds assayed at 2.5 to 20 µM.

[3] = system: K562 cells; assay: Rhodamine 123 intracellular accumulation assay in K562; assay type: cell-based; details: 20 μM
Description: as §1

[4] = system: Lucena 1 cells; assay: MTT cytotoxicity assay in Lucena 1; assay type: cell-based; details: 48 h
Description: (§3) Then 0.5 mg/mL MTT in PBS was added. After additional incubation for 4 h, the formazan crystals obtained were dissolved in DMSO and the absorbance at 595 nm was read on an iMark micro-plate reader (Bio-Rad, USA). IC50 values for cytotoxicity were then calculated as reported[50] using nonlinear regression by GraphPad Prism 7 (Graphpad Software, Inc., San Diego, CA, USA, www.graphpad.com).
(§4) The cells were incubated at 37 °C at 5% CO2 for 48 h and the same protocol described above was followed. IC50 values of Dox were then obtained.

[5] = system: PBMC; assay: Cytotoxicity on peripheral blood mononuclear cells (MTT); assay type: cell-based; details: Homo sapiens, 48 h, PHA 10 μg/mL, read-out: inhibition on proliferation of PBMC
Description: as §2

[6] = system: K562 cells; assay: Doxorubicin intracellular accumulation assay (flow cytometry) in K562; assay type: cell-based; design: key: MFI with inhibitor / MFI of Dox alone; details: compound 20 µM; 5 μM Dox
Description: as §1

[7] = target: T1, P-gp; details: human, 1 h; for FIR Rho123: 0.62 µM; for FIR Rho123 (fold more Rho123 than untreated cells): 20 µM
Description: The intracellular accumulation of the fluorescent probes, Dox and Rho123, was determined by monitoring its fluorescence intensity using flow cytometry (96-well plate format), as previously reported. The inhibition on the outward transport of these P-gp substrates results in an increased […] fluorescence intensity (MFI). […] The plates were then incubated in a 5% CO2 incubator for 1 h at 37 °C. Afterwards, 5 μM Dox was added to each well. The other fluorescent specific substrate of P-gp, Rho123, however, was added at 500 ng/mL to additionally measure the ability of the most promising compounds to block its efflux. Subsequently, cells from both assays were washed twice with cold PBS, and 15,000 events from each sample were analyzed to determine the cell-associated fluorescence. Dead cells were eliminated by means of forward- and side-scatter parameters. […] The blocking of the P-gp transport function was evaluated by the parameter FIR, calculated as the ratio of the MFI of Dox or Rho123 with the addition of the likely inhibitor to the MFI of Dox or Rho123 alone.

[8] = system: K562 cells; assay: MTT cytotoxicity assay in K562; assay type: cell-based; details: 48 h
Description: as §3, §4

[9] = system: Lucena 1 cells; assay: Doxorubicin resistance reversal assay; assay type: cell-based; details: for lowest co-administered concentration significantly increasing doxorubicin toxicity: p < 0.05
Description: as §4

[10] = system: SphK1; details: previously found; read-out: IC50 against SphK1; cited from earlier work
[11] = system: SphK2; details: previously found; read-out: IC50 against SphK2; cited from earlier work
[12] = compound 1.25 µM, FR = IC50 Dox/IC50 Dox with compound, 48 h

T1 sequence (P08183 whole entry): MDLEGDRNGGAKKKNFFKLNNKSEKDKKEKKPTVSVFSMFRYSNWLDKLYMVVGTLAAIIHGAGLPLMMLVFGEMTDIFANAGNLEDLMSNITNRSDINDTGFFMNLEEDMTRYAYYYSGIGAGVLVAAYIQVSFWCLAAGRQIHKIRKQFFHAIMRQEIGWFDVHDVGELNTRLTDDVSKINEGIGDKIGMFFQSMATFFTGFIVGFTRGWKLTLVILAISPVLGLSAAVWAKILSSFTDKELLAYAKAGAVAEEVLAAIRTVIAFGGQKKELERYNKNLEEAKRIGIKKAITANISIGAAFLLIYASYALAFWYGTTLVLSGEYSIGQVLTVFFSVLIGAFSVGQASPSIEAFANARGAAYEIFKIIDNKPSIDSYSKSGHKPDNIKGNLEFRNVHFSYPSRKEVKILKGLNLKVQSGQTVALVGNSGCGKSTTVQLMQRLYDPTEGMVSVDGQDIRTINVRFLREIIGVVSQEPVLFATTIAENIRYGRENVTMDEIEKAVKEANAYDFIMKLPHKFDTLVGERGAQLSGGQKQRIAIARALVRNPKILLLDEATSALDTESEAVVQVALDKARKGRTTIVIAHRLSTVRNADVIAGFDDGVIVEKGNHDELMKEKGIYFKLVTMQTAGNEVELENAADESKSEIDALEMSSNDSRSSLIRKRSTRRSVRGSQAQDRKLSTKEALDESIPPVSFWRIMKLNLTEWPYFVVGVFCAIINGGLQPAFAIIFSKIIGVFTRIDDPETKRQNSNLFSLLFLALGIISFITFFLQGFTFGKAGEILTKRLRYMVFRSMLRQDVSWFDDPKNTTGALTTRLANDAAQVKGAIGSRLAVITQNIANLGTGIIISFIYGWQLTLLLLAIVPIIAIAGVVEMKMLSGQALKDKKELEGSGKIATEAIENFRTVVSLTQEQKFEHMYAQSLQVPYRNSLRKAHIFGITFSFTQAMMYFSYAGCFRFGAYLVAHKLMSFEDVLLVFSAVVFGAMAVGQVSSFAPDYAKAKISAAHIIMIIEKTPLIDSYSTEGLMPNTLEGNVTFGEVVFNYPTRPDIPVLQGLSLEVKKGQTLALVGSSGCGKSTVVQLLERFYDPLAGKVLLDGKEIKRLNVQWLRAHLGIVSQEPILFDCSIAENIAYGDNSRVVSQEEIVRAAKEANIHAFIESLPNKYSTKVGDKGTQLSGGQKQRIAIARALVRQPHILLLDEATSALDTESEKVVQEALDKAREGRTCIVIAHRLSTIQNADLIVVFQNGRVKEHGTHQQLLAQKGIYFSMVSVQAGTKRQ

minimum effective concentration (MEC), Dox accumulation [1]	FIR Lucena 1 ([1]; 0.16 µM)	FIR Lucena 1 ([1]; 0.31 µM)	FIR Lucena 1 ([1]; 0.62 µM)	FIR Lucena 1 ([1]; 1.25 µM)	FIR Lucena 1 ([1]; 2.5 µM)	FIR Lucena 1 ([1]; 5 µM)	FIR Lucena 1 ([1]; 10 µM)	FIR Lucena 1 ([1]; 20 µM)	minimum effective concentration (MEC), Rho123 accumulation [7]	FIR Rho123 [7]	FIR Rho123 (fold more Rho123 than untreated cells) [7]	SMILES	concentrations at which the erythrocyte membrane was not altered [2]	Rho123 accumulation in K562 (result in words) [3]	IC50 (cytotoxicity) against Lucena 1 [4]	inhibition at 20 µM [5]	FIR K562 [6]	IC50 (cytotoxicity) against K562 [8]	fold reversal (FR) of Dox resistance [9, 12]	lowest co-administered concentration significantly increasing doxorubicin toxicity [9]	also measured
0.31 µM	0.99 ± 0.07	1.12 ± 0.02	1.29 ± 0.08	1.22 ± 0.03	1.26 ± 0.01	1.23 ± 0.05	1.24 ± 0.10	1.42 ± 0.09	0.62 µM	1.36 ± 0.04	2.72 ± 0.10	COc1cc2cc(CNc3ccc(Nc4nccc(-c5ccc6ccccc6c5)n4)cc3)c(=O)[nH]c2cc1OC [Compound 5c]	lower than 10 µM	no increase	non-toxic	21%	0.95 ± 0.02	non-toxic	5.16 ± 0.60	0.04 µM	fold reversal (FR) of Dox resistance ([9]; compound 40 nM): 1.30 ± 0.05
0.31 µM	1.04 ± 0.02	1.10 ± 0.01	1.21 ± 0.01	1.18 ± 0.03	1.26 ± 0.04	1.26 ± 0.04	1.25 ± 0.04	1.43 ± 0.10	0.62 µM	1.37 ± 0.06	3.05 ± 0.16	COc1ccc2[nH]c(=O)c(CN3CCN(c4nccc(-c5ccc6ccccc6c5)n4)CC3)cc2c1 [Compound 7b]	< 20 µM	no increase	non-toxic	12%	0.88 ± 0.02	non-toxic	6.90 ± 2.84	0.08 µM	IC50 [10]: > 650 µM; fold reversal (FR) of Dox resistance ([9]; compound 80 nM): 1.51 ± 0.23; IC50 [11]: > 650 µM
